{"source": "patent US12678480B2", "about": "“Polypeptide applied to inhibition of intracellular lipid accumulation and synthesis method thereof” (NATIONAL CHENG KUNG UNIVERSITY, priority 2021, dated 2026)", "key": {"[1]": {"test_system": "human hepatocarcinoma cells (Huh7)", "assay": "fluorescence staining of lipid droplets in hepatocytes treated with the polypeptide", "type": "cell-based", "conditions": "Huh7, 400 μM oleic acid, peptide 10 μM, 20 μM; FIG. 4"}, "[2]": {"test_system": "human hepatocarcinoma cells (Huh7)", "conditions": "Huh7, 400 μM oleic acid, peptide 10 μM, 20 μM; FIGS. 3A-3B"}}, "note": "Ends that are not written are not given here."}
{"substance": "MEPGGARLRLQRTEGLGGERERQPCGDGNTETHRAPDLVQWYGRKKRRQRRRK-OH [polypeptide]", "values": [{"measurement": "generation of intracellular lipid droplets (LD)", "setting": "[1]", "value": "can inhibit"}, {"measurement": "level of total cholesterol (TC) in hepatocytes", "setting": "[2]", "value": "can reduce"}, {"measurement": "level of triglyceride (TG) in hepatocytes", "setting": "[2]", "value": "can reduce"}]}
